Data: patent US20020022826A1, “Burst electrode” (priority 2000, published 2002)

Settings: bare metal electrodes, nitrogen atmosphere
Source text: Using stainless steel electrodes in aqueous NaPSS electrolyte, conditions were developed for the reproducible synthesis, loading, and release of bioactive cations from PPy/PSS films. After PPy/PSS film preparation, the polymer-modified electrodes were removed from the electrolyte, washed with water, and their redox properties studied by cyclic voltammetry (CV).

For `NCCc1ccc(O)c(O)c1` [Dopamine, dopamine], the “potential at which dopamine oxidizes” value was “+0.6 V vs. Ag/AgCl”.
